Read-outs that look alike come from different tables or passages of the source.
How the values were obtained:
Experiment in all cases: Ambit kinase profiling, competition binding
[1] = molecular target: T1, PCTK2 (Homo sapiens, UniProt Q00537)
T1 construct: purchased Ambit Biosciences (KINOMEscan)
Procedure: (§1) Also included in the kinase profile are four isoforms of PKC (δ, ε, η, θ) and eight isoforms of CAMKs (CAMKIα, δ, γ; CAMKIIα, β, δ, γ; CAMK4).
(§2) The global kinase profiling experiment was performed by Ambit Biosciences.

[2] = molecular target: T2, CDK5 (Homo sapiens, UniProt Q00535)
T2 construct: purchased Ambit Biosciences (KINOMEscan)
T2 sequence (Q00535 whole entry): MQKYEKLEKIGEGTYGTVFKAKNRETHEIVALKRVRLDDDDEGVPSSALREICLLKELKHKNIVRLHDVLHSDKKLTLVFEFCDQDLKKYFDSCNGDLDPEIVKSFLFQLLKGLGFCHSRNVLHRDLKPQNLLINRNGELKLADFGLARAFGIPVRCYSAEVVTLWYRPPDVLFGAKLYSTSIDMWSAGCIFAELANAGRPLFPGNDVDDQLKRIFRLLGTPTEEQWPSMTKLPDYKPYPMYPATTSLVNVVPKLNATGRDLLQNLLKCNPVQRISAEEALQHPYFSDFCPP
Procedure: as §1, §2

[3] = molecular target: T3, TGFBR2 (Homo sapiens, UniProt P37173)
T3 construct: purchased Ambit Biosciences (KINOMEscan)
T3 sequence (P37173 23-567): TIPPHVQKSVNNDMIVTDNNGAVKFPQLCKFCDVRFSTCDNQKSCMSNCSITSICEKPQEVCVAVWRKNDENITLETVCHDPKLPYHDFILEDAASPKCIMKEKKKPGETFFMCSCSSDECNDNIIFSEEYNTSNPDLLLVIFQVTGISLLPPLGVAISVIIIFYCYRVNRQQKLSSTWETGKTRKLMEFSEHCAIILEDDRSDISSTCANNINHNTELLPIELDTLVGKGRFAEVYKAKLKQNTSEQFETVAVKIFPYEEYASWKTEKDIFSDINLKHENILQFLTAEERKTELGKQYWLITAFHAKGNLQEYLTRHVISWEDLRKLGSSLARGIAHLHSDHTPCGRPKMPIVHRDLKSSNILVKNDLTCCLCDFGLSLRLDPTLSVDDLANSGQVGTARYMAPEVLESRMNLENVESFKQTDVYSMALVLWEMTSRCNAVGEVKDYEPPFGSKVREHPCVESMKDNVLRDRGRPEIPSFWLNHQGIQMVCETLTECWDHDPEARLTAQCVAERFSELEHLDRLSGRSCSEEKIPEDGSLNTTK
Procedure: as §1, §2

[4] = molecular target: T4, MUSK (Homo sapiens, UniProt O15146)
T4 construct: purchased Ambit Biosciences (KINOMEscan)
T4 sequence (O15146 24-869): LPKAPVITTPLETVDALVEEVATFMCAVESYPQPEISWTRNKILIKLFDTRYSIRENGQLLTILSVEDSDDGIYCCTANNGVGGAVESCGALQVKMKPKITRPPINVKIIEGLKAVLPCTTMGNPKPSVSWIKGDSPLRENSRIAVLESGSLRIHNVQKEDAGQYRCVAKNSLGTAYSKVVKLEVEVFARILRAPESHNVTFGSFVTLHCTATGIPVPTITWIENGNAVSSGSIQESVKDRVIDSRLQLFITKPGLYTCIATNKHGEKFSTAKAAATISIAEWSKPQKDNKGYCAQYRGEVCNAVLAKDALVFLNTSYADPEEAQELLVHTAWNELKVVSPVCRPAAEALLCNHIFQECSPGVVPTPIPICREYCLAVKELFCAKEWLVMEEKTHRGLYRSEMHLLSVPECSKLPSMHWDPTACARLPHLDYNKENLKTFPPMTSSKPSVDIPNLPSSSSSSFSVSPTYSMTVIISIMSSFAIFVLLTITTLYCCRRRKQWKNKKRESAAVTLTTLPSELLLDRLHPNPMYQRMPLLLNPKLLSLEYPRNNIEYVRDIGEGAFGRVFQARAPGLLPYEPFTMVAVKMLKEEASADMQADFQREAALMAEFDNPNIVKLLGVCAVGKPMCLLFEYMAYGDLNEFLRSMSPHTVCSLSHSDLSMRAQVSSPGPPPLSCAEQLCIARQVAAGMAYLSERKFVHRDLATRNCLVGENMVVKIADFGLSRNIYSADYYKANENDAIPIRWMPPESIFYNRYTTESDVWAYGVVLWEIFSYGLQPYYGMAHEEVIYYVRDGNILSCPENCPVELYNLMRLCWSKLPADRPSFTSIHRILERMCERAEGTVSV
Procedure: as §1, §2

[5] = molecular target: T5, ERK8 (Homo sapiens, UniProt Q8TD08)
T5 construct: purchased Ambit Biosciences (KINOMEscan)
T5 sequence (Q8TD08 1-544): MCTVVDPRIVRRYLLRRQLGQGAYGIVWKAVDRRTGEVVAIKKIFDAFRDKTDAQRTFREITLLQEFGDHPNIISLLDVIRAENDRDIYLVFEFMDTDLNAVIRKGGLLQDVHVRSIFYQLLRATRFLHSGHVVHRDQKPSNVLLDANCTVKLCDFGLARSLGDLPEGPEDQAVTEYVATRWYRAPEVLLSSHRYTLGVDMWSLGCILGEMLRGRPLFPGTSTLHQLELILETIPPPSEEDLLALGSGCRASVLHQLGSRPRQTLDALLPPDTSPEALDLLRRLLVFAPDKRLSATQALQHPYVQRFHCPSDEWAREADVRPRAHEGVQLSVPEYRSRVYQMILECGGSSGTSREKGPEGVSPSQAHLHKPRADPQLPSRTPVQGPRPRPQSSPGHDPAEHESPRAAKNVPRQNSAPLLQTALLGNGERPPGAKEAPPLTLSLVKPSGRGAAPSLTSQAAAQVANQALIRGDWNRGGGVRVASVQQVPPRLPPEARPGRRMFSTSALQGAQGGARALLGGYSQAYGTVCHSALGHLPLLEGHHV
Procedure: as §1, §2

[6] = molecular target: T6, RPS6KA6(Kin.Dom.2-C-terminal) (Homo sapiens, UniProt Q9UK32); details: for % Competition: 10 µM
T6 construct: RPS6KA6(Kin.Dom.2-C-terminal); purchased Ambit Biosciences (KINOMEscan)
T6 sequence (Q9UK32 401-745 limits assumed): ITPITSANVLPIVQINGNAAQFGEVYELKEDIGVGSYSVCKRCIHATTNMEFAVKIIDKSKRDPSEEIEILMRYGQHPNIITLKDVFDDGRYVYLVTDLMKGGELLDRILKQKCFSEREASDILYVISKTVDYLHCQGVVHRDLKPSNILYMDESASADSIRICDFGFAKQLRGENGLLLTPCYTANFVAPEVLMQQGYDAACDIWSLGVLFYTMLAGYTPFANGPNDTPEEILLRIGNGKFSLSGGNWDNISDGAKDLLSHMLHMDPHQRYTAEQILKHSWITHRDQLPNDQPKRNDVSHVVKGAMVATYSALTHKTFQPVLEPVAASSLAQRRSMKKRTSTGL
Procedure: as §1, §2

[7] = molecular target: T7, PKAC-beta (Homo sapiens, UniProt P22694)
T7 construct: purchased Ambit Biosciences (KINOMEscan)
Procedure: as §1, §2

T1 sequence (Q00537 whole entry): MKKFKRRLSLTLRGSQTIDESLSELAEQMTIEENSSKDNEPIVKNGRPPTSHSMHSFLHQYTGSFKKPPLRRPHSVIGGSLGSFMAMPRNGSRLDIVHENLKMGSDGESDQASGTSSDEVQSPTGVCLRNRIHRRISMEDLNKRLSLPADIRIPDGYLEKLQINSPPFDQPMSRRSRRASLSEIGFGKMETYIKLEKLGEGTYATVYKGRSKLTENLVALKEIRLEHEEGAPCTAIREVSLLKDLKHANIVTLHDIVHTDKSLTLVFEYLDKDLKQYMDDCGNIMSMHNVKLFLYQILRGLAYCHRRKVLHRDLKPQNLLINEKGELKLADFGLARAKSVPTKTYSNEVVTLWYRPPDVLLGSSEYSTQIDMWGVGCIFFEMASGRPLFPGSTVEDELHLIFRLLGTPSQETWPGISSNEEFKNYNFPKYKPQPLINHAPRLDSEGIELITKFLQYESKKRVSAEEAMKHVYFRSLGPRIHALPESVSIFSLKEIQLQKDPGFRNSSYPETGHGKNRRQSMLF

SMILES | inhibition at 10 µM ([1]; PCTK2, 10 µM, read-out: % Competition) [%] | inhibition at 10 µM ([2]; CDK5, 10 µM, read-out: % Competition) [%] | inhibition at 10 µM ([3]; TGFBR2, 10 µM, read-out: % Competition) [%] | inhibition at 10 µM ([4]; MUSK, 10 µM, read-out: % Competition) [%] | inhibition at 10 µM ([5]; ERK8, 10 µM, read-out: % Competition) [%] | % Competition [6] [%] | inhibition at 10 µM ([7]; PKAC-beta, 10 µM, read-out: % Competition) [%] | inhibition at 10 µM ([1]; read-out: % Competition) [%] | inhibition at 10 µM ([2]; read-out: % Competition) [%] | inhibition at 10 µM ([3]; read-out: % Competition) [%] | inhibition at 10 µM ([4]; read-out: % Competition) [%] | inhibition at 10 µM ([5]; read-out: % Competition) [%] | inhibition at 10 µM ([7]; read-out: % Competition) [%] | inhibition at 10 µM ([1]; PCTK2, compound concentration 10 uM, read-out: Percent Competition) [%] | inhibition at 10 µM ([2]; CDK5, compound concentration 10 uM, read-out: Percent Competition) [%] | inhibition at 10 µM ([3]; TGFBR2, compound concentration 10 uM, read-out: Percent Competition) [%] | inhibition at 10 µM ([4]; MUSK, compound concentration 10 uM, read-out: Percent Competition) [%] | inhibition at 10 µM ([5]; ERK8, compound concentration 10 uM, read-out: Percent Competition) [%] | Percent Competition ([6]; compound concentration 10 uM) [%] | inhibition at 10 µM ([7]; PKAC-beta, compound concentration 10 uM, read-out: Percent Competition) [%]
Fc1ccc(-c2c(-c3ccncc3)[nH]c3nccnc23)cc1 [Compound 122] | 78 | 92 | 98 | 94 | 98 | 98 | 67 | – | – | – | – | – | – | – | – | – | – | – | – | –
CC(O)CNc1cc(-c2[nH]c3cccnc3c2-c2ccc(F)cc2)ccn1 (stereo not drawn) [Compound 140] | – | – | – | – | – | 96 | – | < 50 | < 50 | < 50 | < 50 | < 50 | < 50 | – | – | – | – | – | – | –
Fc1ccc(-c2c(-c3ccncc3)[nH]c3nccnc23)cc1 [RO1155697-000-005] | – | – | – | – | – | – | – | – | – | – | – | – | – | 78 | 92 | 98 | 94 | 98 | 98 | 67
